# Tests used:
# T-Rex-293 cells [1] = test: 35S-methionine metabolic labeling (protein synthesis); assay type: cell-based, human
# Procedure: T-Rex-293 (mazF/pcDNA3) and T-Rex-293 (mazF/mazE) cells were incubated for 0, 24 and 48 hr in tetracycline-containing complete DMEM followed by incubation for 1 hr in fresh methionine-free DMEM containing 10 μCi/ml ^35S-methionine. The cells then were washed with PBS twice and lysed in 2× Laemmli buffer. The cell lysate was subjected to SDS-PAGE followed by autoradiography and coomassie blue stain. Signal intensity was measured by Phosphoimager STORM 860 (Molecular Dynamics, Sunnyvale, Calif.).
# T-Rex-293 cells [2] = test: phase contrast morphology / cytopathic effect; assay type: cell-based, human; details: T-Rex-293, 72 hours post-induction of MazF
# iBMK cells = test: β-galactosidase assay, viability of iBMK cells co-expressing LacZ; assay type: cell-based, mouse
# Procedure: β-galactosidase assays to determine the viability of iBMK cells co-expressing LacZ and MazF were performed as previously described (Han, J., Sabbatini, P., and White, E. Mol. Cell. Biol. 16: 5857-5864 (1996)). W2, D3, X2 and K1 co-transfected with pcDNA6/His/LacZ and pcDNA4/TO/mazF or pcDNA3 for 48 hr were fixed in 1% glutaraldehyde and then stained with 0.2% X-gal solution at 37° C. for 24 hr. β-Galactosidase positive blue cells and the total number of cells (approximately 200 cells) were independently counted on a 6-cm diameter dish.
substance,measurement,setting,value
MazF: E. coli toxin; sequence specific endoribonuclease (mRNA interferase) cleaving single-stranded RNAs at ACA sequences; expressed from plasmid pcDNA4/TO/mazF,total protein levels (Coomassie blue),"T-Rex-293 cells [1]; MazF expressing T-Rex-293 cells, over the 48 hour induction period",remain constant
same,protein synthesis (35S-methionine incorporation),"T-Rex-293 cells [1]; T-Rex-293 (mazF/pcDNA3), 24 hours post induction of MazF",strikingly inhibited
same,number of attached cells,T-Rex-293 cells [2],dramatically decreased
same,β-galactosidase expression,iBMK cells; D3 (bax−/− bak−/−) iBMK cells expressing MazF,little effect
same,response to MazF (β-galactosidase assay),iBMK cells; K1 (bak−/−) iBMK cells,preferentially resistant
same,β-galactosidase positive cells,"iBMK cells; W2 iBMK cells transiently co-expressing LacZ and MazF, 48 hours post-transfection",significant decrease
same,number of β-galactosidase positive cells,iBMK cells; X2 (bax−/−) iBMK cells expressing MazF,significantly decreased
same,response to MazF-induced cell death (β-galactosidase assay),iBMK cells; nbk/bik−/− iBMK cells,preferentially resistant
same,number of β-galactosidase positive cells,"iBMK cells; puma−/−, bim−/−, noxa−/− iBMK cells transiently expressing MazF",significantly decreased

# From patent US20090047742A1 (priority 2005, published 2009)
